The results in this text go back to ChEMBL document CHEMBL1201862, “PubChem BioAssay data set” (2004).

SMILES strings stand for the structures.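 96-well plates; 48 h exposure; 5 concentrations. Endpoints by linear interpolation between flanking doses. Not reached: highest tested concentration assigned. GI50 marks 50% less growth.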 Calls of active or inactive are those of the source. No stated cut-off is given here; in the data, active = GI50 up to about 1.1 µM and inactive = higher. A value given as a limit tells only on which side of the number the result lay.

Common to all, as to experiment: inhibition of tumour cell growth, NCI panel, 48 h
The subject of assay [1] is A498.
In assay [2] the test system is CCRF-CEM.
For assay [3], the system named is HT-29.
Assay [4] has as its system KM12.
The subject of assay [5] is OVCAR-3.
The subject of assay [6] is OVCAR-5.
For assay [7], the system named is OVCAR-8.
The subject of assay [8] is RPMI-8226.
The test system of assay [9] is RXF 393.
The test system of assay [10] is SF-295.
In assay [11] the test system is SF-539.
Assay [12] concerns SK-OV-3.
Assay [13] concerns SNB-19.
The subject of assay [14] is SNB-75.
Assay [15] relates to TK-10.
In assay [16] the test system is U-251.
In assay [17] the test system is SR.

Consider `N#CC(C(=N/NC(N)=S)/C(=N\NC(N)=S)C(C#N)c1ccccc1)c1ccccc1` (centres undefined), for which the GI50 in assay [1], in [2], in assay [3], in assay [4], in assay [5] and in [6] was > 10 µM (inactive) each time. The GI50 in assay [7], in [8], in [9], in assay [10], in assay [11] and in assay [12] was > 10 µM (inactive) throughout. In addition, the GI50 in [13], in assay [14], in assay [15] and in assay [16] was > 10 µM (inactive) each time.

Take `CCOC(=O)C(=O)Nc1nc2ccc(C)cc2s1`: the GI50 in [1], in [2], in [3], in [4], in assay [5] and in [6] was > 100 µM (inactive) in each case. The GI50 in [7] was > 100 µM (inactive); in assay [8], > 100 µM (inactive); in [11], 0.995 µM (active); in assay [12], > 100 µM (inactive); in [13] it was > 100 µM (inactive); in [14], > 100 µM (inactive). In addition, the GI50 in assay [17] and in assay [16] was > 100 µM (inactive) throughout.

As for `COc1ccc(C(Cc2cc(OC)c(OC)c(OC)c2)C(=O)O)cc1` (centres undefined), the GI50 in assay [1] was 56.5 µM (inactive); in assay [2] it was 46 µM (inactive); in assay [3], 37.6 µM (inactive); in [4], 41.8 µM (inactive); in assay [5] it was 24.3 µM (inactive); in assay [6] it was > 100 µM (inactive). The GI50 in [7] is > 100 µM (inactive); in [8], 55.8 µM (inactive); in [10], 26.1 µM (inactive); in assay [11], 42.6 µM (inactive); in assay [12], 52.6 µM (inactive); in assay [13], 62.7 µM (inactive). Besides, the figures for the GI50 in assay [14], in assay [15] and in [16] were 22.8 µM (inactive), > 100 µM (inactive) and > 100 µM (inactive), respectively.

Turning to `CCn1c2ccccc2c2c(-c3ccccc3)cc3c(c21)C(=O)N(c1ccccc1)C3=O`, the GI50 in [1], in assay [2], in assay [4], in assay [5], in [6] and in assay [7] was > 100 µM (inactive) each time. For the same molecule, the GI50 in assay [10] was > 100 µM (inactive); in [11], > 100 µM (inactive); in assay [12], > 100 µM (inactive); in [13], 81.5 µM (inactive); in assay [14], 89.5 µM (inactive); in assay [17], > 100 µM (inactive). Besides, the GI50 in assay [15] and in [16] was > 100 µM (inactive) in each case.

With `Cc1c(CC/C(=N\Nc2ccc([N+](=O)[O-])cc2[N+](=O)[O-])c2ccccc2)c2ccccc2n1C`, the GI50 in assay [1] is > 100 µM (inactive); in assay [2] it was > 44 µM (inactive); in assay [3], > 100 µM (inactive); in assay [4] it was > 100 µM (inactive); in assay [5] it was > 100 µM (inactive); in [6], > 100 µM (inactive). In addition, the GI50 in [7] is > 100 µM (inactive); in assay [8], 20.7 µM (inactive); in assay [9], > 46.1 µM (inactive); in assay [10], > 100 µM (inactive); in assay [11], > 100 µM (inactive); in [12], > 100 µM (inactive). For the same molecule, the GI50 in assay [13] is > 94.4 µM (inactive); in assay [14], > 56.1 µM (inactive); in assay [15], > 100 µM (inactive); in assay [16], > 100 µM (inactive).

For `COc1cc(/C=C2\CCc3ccccc3C2=O)cc(OC)c1OC`, the GI50 in assay [2] is 4.89 µM (inactive); in assay [3], 17.5 µM (inactive); in [4] it was 13.6 µM (inactive); in assay [5] it was 15.8 µM (inactive); in [6], 14.4 µM (inactive); in [7] it was 16.2 µM (inactive). For the same molecule, the GI50 in assay [8] is 3.92 µM (inactive); in assay [9], 14.6 µM (inactive); in assay [10], 15 µM (inactive); in assay [11], 16.9 µM (inactive); in assay [12] it was 18.6 µM (inactive); in assay [13], 15.8 µM (inactive). For the same molecule, the GI50 in assay [14] is 22.2 µM (inactive); in [17], 3.86 µM (inactive); in [15] it was 17.8 µM (inactive); in [16] it was 16.1 µM (inactive).

Consider `CCOC(=O)C(C(=O)OCC)=c1sc(=C(C(=O)OCC)C(=O)OCC)s1`, for which the GI50 in [2], in [3], in assay [4], in [5], in assay [6] and in assay [7] was > 100 µM (inactive) each time. In addition, the GI50 in assay [8] was > 100 µM (inactive); in [9] it was > 100 µM (inactive); in assay [10] it was > 100 µM (inactive); in assay [12], > 100 µM (inactive); in [14], 76.2 µM (inactive); in [15] it was > 100 µM (inactive).

For `CN1CCc2ccccc2C(C(=O)c2ccc3c(c2)OCO3)C1=O` (centres undefined), the GI50 in [1], in [2], in assay [3], in assay [4], in assay [5] and in assay [7] was > 100 µM (inactive) throughout. Further, the GI50 in [8], in assay [9], in assay [12], in assay [13], in [14] and in assay [15] was > 100 µM (inactive) each time. Further, the GI50 in assay [16] is > 100 µM (inactive).

Take `O=C(CSc1nnc(Cc2ccccc2)o1)Nc1ccc(Cl)cc1[N+](=O)[O-]`: the GI50 in assay [2] is 15.6 µM (inactive); in assay [3], 22.3 µM (inactive); in assay [4] it was > 10 µM (inactive); in [7] it was 29.8 µM (inactive); in assay [8] it was 17.9 µM (inactive); in assay [9] it was 19.2 µM (inactive). The GI50 was 18.7 µM (inactive) in assay [10]; 34.5 µM (inactive) in [12]; 14.4 µM (inactive) in assay [13]; 18.9 µM (inactive) in assay [14]; 26.2 µM (inactive) in assay [17]; 17.1 µM (inactive) in assay [15]. The GI50 in [16] is 19.5 µM (inactive).

`COCC1N=C(c2cc(OC)c(OC)c(OC)c2-c2cc3c(cc2C2OCCCO2)OCO3)O[C@H]1c1ccccc1` (some centres undefined): the GI50 in [1], in assay [2], in assay [3], in assay [4], in assay [5] and in assay [6] was > 100 µM (inactive) throughout. For the same molecule, the GI50 in assay [7], in assay [8], in assay [9], in assay [10], in [11] and in [12] was > 100 µM (inactive) throughout. For the same molecule, the GI50 in [13], in assay [14], in assay [15] and in assay [16] was > 100 µM (inactive) in each case.

Turning to `CC(=O)OCc1c(O)nc2c(c1O)-c1ccccc1CC2`, the GI50 in assay [2] is 67.1 µM (inactive); in assay [3], 113 µM (inactive); in assay [4], 53.2 µM (inactive); in assay [5], 51.5 µM (inactive); in assay [7] it was 101 µM (inactive); in [8], 38.5 µM (inactive). In addition, the GI50 in assay [9] is 54.6 µM (inactive); in assay [10] it was 74.6 µM (inactive); in [11], 89.1 µM (inactive); in assay [12], 194 µM (inactive); in [13], > 350 µM (inactive); in assay [17], 95.1 µM (inactive). Moreover, the GI50 was 86.9 µM (inactive) in assay [15] and > 350 µM (inactive) in [16].

With `CCCCCCCCCCCCCC(=O)NCC(OCC)OCC`, the GI50 in [1], in assay [2], in assay [3], in assay [4], in [5] and in assay [6] was > 100 µM (inactive) in each case. The GI50 in assay [7], in assay [9], in assay [10], in assay [11], in assay [12] and in [13] was > 100 µM (inactive) throughout. The GI50 in assay [14], in assay [15] and in assay [16] was > 100 µM (inactive) in each case.

Take `CCOC(=O)NNC(=O)NC12CC3CC(CC(C3)C1)C2`: the GI50 in [1], in assay [2], in [3], in [4], in [5] and in assay [6] was > 100 µM (inactive) throughout. Moreover, the GI50 in [7], in [9], in assay [10], in assay [11], in assay [12] and in assay [13] was > 100 µM (inactive) each time. Moreover, the GI50 in assay [14], in [15] and in [16] was > 100 µM (inactive) in each case.
